For this data set, the system named is Charles River CD-1 mice. The experiment in a line: Intravenous acute tolerance in mice (LD50). The procedure: The relative toxicities of free metal, free ligand, metal chelate contrast agent and excipient of the present invention were determined by injecting samples of each into the tail vein of Charles River CD-1 mice (18-23 g, 25-35 days) at 0.02 mL/g. The observation period was 14 days.

The mark [1] stands for this setting: intravenous (tail vein) at 0.02 mL/g, CD-1 mice, 14 days observation, physiologic pH.

SMILES strings stand for the structures.

In turn, `CC(O)CN1CCN(CC(=O)[O-])CCN(CC(=O)[O-])CCN(CC(=O)[O-])CC1.CC(O)CN1CCN(CC(=O)[O-])CCN(CC(=O)[O-])CCN(CC(=O)[O-])CC1.[Ca+2].[Ca+2].[Ca+2]` (stereo not shown) [Ca[Ca(HP-DO3A)]2, Calcium bis[1,4,7-tris(carboxymethyl)-10-(2′-hydroxy)propyl-1,4,7,10-tetraazacyclododecanato-calcium(II)]] returned an LD50 under setting [1] of 1.3 mmol/kg. On the same count and under the same terms, then `O=C([O-])CN1CCNCCN(CC(=O)[O-])CCN(CC(=O)[O-])CC1.O=C([O-])CN1CCNCCN(CC(=O)[O-])CCN(CC(=O)[O-])CC1.[Ca+2].[Ca+2].[Ca+2]` [Ca[Ca(DO3A)]2, Calcium bis[1,4,7,10-tetraazacyclododecane-1,4,7-triacetatocalcium(II)]], with 1.6 mmol/kg. On the same count and under the same terms, then `[Ca+2].[Cl-].[Cl-]` [CaCl2], with 1.5 mmol/kg.

For the compound `O=C([O-])CN1CCNCCN(CC(=O)[O-])CCN(CC(=O)[O-])CC1.[Gd+3]` [Gd(DO3A)], the LD50 under setting [1] stood at 5.7 mmol/kg. Moreover, the “Tolerance (in words)” value (summary of Table 1 data, intravenous in mice) is “highly tolerated”. For the compound `O=C(O)CN1CCN(CC(=O)O)CCN(CC(=O)O)CCN(CC(=O)O)CC1` [DOTA, 1,4,7,10-tetraazacyclododecane-N,N′N″,N″′-tetraacetic acid], under setting [1], the LD50 was 0.18 mmol/kg. The same measure, in the same setting: next, `CC(O)CN1CCN(CC(=O)O)CCN(CC(=O)O)CCN(CC(=O)O)CC1.[Gd+3]` (stereo not shown) [Gd(HP-DO3A), Gadolinium(III) 1,4,7-tris(carboxymethyl)-10-(2′-hydroxypropyl)-1,4,7,10-tetraazacyclododecane]: 10 mmol/kg. Under setting [1], `[Gd+3].[OH-].[OH-].[OH-]` [Gd(OH)3] had an LD50 of 0.1 mmol/kg.

With `O=C(O)CN1CCNCCN(CC(=O)O)CCN(CC(=O)O)CC1` [DO3A, 1,4,7,10-tetraazacyclododecane-1,4,7-triacetic acid], for the setting “mouse, in vivo, iv”, the 50% lethal dose (LD50) came out at 0.12 mmol/kg. The same measure, in the same setting: then `CC(O)CN1CCN(CC(=O)O)CCN(CC(=O)O)CCN(CC(=O)O)CC1` (stereo not shown) [HP-DO3A, 1,4,7-tris-(carboxymethyl)-10-(2′-hydroxypropyl)-1,4,7,10-tetraazacyclododecane], with 0.11 mmol/kg.

One may read the LD50 as the dose at which mortality reaches 50%. A lower LD50 goes with greater toxicity.
